From patent US9770349B2, “Nanoporous stents with enhanced cellular adhesion and reduced neointimal formation” (University of Virginia Patent Foundation, priority 2002, dated 2017)
Converted amounts (≈) assume the structure as drawn.

Experiment: Rapamycin solubility in solvent
Format: physicochemical
Details: 100% ethanol, organic solvent or mixture, in ethanol (100% ethanol)

solubility: ~90 mg/mL (≈ 98.4 mM)
SMILES: CO[C@H]1C[C@@H]2CC[C@@H](C)[C@@](O)(O2)C(=O)C(=O)N2CCCC[C@H]2C(=O)O[C@H]([C@H](C)C[C@@H]2CC[C@@H](O)[C@H](OC)C2)CC(=O)[C@H](C)/C=C(\C)[C@@H](O)[C@@H](OC)C(=O)[C@H](C)C[C@H](C)/C=C/C=C/C=C/1C [rapamycin]
